Measured values published in patent US10370343B2, “[6,6] Fused bicyclic HDAC8 inhibitors” (FORMA Therapeutics, Inc., priority 2015, dated 2019).

Columns and labels:
[1] = biological target: T1, Recombinant N-terminal GST tag full-length human HDAC8 (Homo sapiens, UniProt Q9BY41); assay: HDAC8 probe binding assay, time resolved fluorescence (TRF) format; settings: compounds grouped by IC50 range (Table 2)
T1 construct: Recombinant N-terminal GST tag full-length human HDAC8; purchased SignalChem H90-30G-1000; host or cells: baculovirus in Sf9 insect cells
T1 sequence (Q9BY41 1-377): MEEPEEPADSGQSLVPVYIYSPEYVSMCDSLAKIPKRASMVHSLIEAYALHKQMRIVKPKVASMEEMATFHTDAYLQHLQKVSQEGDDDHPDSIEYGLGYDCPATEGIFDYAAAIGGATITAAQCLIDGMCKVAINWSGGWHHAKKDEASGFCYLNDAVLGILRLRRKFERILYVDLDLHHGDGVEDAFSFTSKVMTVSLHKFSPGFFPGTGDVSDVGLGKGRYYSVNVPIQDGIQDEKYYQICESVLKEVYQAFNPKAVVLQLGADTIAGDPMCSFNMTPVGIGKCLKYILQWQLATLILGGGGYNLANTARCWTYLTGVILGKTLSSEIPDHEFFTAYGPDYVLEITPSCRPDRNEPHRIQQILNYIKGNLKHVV
Procedure, shortened: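 IC50 values come from four-parameter logistic fits of percent inhibition, scaled between DMSO (high) and no-enzyme (low) controls. Time-resolved fluorescence (ex 340, em 485/535 nm) was read after 16 h at room temperature. Enzyme was Sf9-expressed full-length human HDAC8 with an N-terminal GST tag, in a probe-binding format.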

[2] = biological target: T2, Full length human recombinant HDAC8 protein (Homo sapiens, UniProt Q9BY41); assay: In vitro histone deacetylase assay: enzymatic HDAC8 electrophoretic mobility shift assay; format: biochemical; settings: electrophoretic mobility shift assay; enzyme 1 nM; 2 μM fluorescently labeled peptide substrate RHKK(Ac)-NH2; 25° C.; 12 concentrations; read-out: HDAC8 IC50
T2 construct: Full length human recombinant HDAC8 protein was expressed in baculoviral system; made in house
T2 sequence (Q9BY41 1-377): T1 sequence (Q9BY41 1-377)

Row | SMILES | IC50 [1] | IC50 [2]
1 | COc1ccc(CN2C(=O)COc3ccc(C(=O)NO)cc32)cc1 [Compound I-141, N-hydroxy-4-(4-methoxybenzyl)-3-oxo-3,4-dihydro-2H-benzo[b][1,4]oxazine-6-carboxamide] | ≤ 25 nM | < 25 nM
2 | O=C(NO)c1ccc2c(c1)N(Cc1cn3ccccc3n1)C(=O)CO2 [Compound I-216, N-hydroxy-4-(imidazo[1,2-a]pyridin-2-ylmethyl)-3-oxo-3,4-dihydro-2H-benzo[b][1,4]oxazine-6-carboxamide] | 25 to 100 nM | 25 to 100 nM
3 | COc1ccc(CN2C(=O)C3(CCC3)Oc3ccc(C(=O)NO)cc32)cc1 [Compound I-157, N-hydroxy-4-(4-methoxybenzyl)-3-oxo-3,4-dihydrospiro[benzo[b][1,4]oxazine-2,1′-cyclobutane]-6-carboxamide] | 25 to 100 nM | 25 to 100 nM
4 | COc1ccc(CN2C(=O)COc3ccc(C(=O)NO)cc32)cc1F [Compound I-245, 4-(3-fluoro-4-methoxybenzyl)-N-hydroxy-3-oxo-3,4-dihydro-2H-benzo[b][1,4]oxazine-6-carboxamide] | ≤ 25 nM | < 25 nM
5 | Cc1ccc2nc(CN3C(=O)COc4ccc(C(=O)NO)cc43)oc2c1 [Compound I-213, N-hydroxy-4-((6-methylbenzo[d]oxazol-2-yl)methyl)-3-oxo-3,4-dihydro-2H-benzo[b][1,4]oxazine-6-carboxamide] | ≤ 25 nM | < 25 nM
6 | O=C(NO)c1ccc2c(c1)N(CC[C@@H]1CCS(=O)(=O)C1)C(=O)CO2 (stereo in doubt) [Compound I-54, 4-(2-(1,1-dioxidotetrahydrothiophen-3-yl)ethyl)-N-hydroxy-3-oxo-3,4-dihydro-2H-benzo[b][1,4]oxazine-6-carboxamide] | 25 to 100 nM | 100 to 1000 nM
7 | O=C(NO)c1ccc2c(c1)N(Cc1cc(F)ccc1C(F)(F)F)C(=O)CO2 [Compound I-268, 4-(5-fluoro-2-(trifluoromethyl)benzyl)-N-hydroxy-3-oxo-3,4-dihydro-2H-benzo[b][1,4]oxazine-6-carboxamide] | 25 to 100 nM | 25 to 100 nM
8 | O=C(NO)c1ccc2c(c1)N(Cc1nc(-c3ccccc3)sc1Cl)C(=O)CO2 [Compound I-255, 4-((5-chloro-2-phenylthiazol-4-yl)methyl)-N-hydroxy-3-oxo-3,4-dihydro-2H-benzo[b][1,4]oxazine-6-carboxamide] | ≤ 25 nM | 25 to 100 nM
9 | O=C(NO)c1ccc2c(c1)N(CC1CCC1)C(=O)CO2 [Compound I-31, 4-(cyclobutylmethyl)-N-hydroxy-3-oxo-3,4-dihydro-2H-benzo[b][1,4]oxazine-6-carboxamide] | 25 to 100 nM | 25 to 100 nM
10 | CC(C)n1c(CN2C(=O)COc3ccc(C(=O)NO)cc32)nc2ccccc21 [Compound I-281, N-hydroxy-4-((1-isopropyl-1H-benzo[d]imidazol-2-yl)methyl)-3-oxo-3,4-dihydro-2H-benzo[b][1,4]oxazine-6-carboxamide] | > 1000 nM | 100 to 1000 nM
11 | O=C(NO)c1ccc2c(c1)N(Cc1nc3cc(F)ccc3o1)C(=O)CO2 [Compound I-217, 4-((5-fluorobenzo[d]oxazol-2-yl)methyl)-N-hydroxy-3-oxo-3,4-dihydro-2H-benzo[b][1,4]oxazine-6-carboxamide] | ≤ 25 nM | < 25 nM
12 | O=C(NO)c1ccc2c(c1)N(Cc1ccc(-c3ccccc3)cc1)C(=O)CO2 [Compound I-251, 4-([1,1′-biphenyl]-4-ylmethyl)-N-hydroxy-3-oxo-3,4-dihydro-2H-benzo[b][1,4]oxazine-6-carboxamide] | ≤ 25 nM | < 25 nM
13 | O=C(NO)c1ccc2c(c1)N(Cc1ccc(-n3cccn3)cc1)C(=O)CO2 [Compound I-224, 4-(4-(1H-pyrazol-1-yl)benzyl)-N-hydroxy-3-oxo-3,4-dihydro-2H-benzo[b][1,4]oxazine-6-carboxamide] | ≤ 25 nM | < 25 nM
14 | O=C(NO)c1ccc2c(c1)N(Cc1ccc(F)c(C(F)(F)F)c1)C(=O)CO2 [Compound I-267, 4-(4-fluoro-3-(trifluoromethyl)benzyl)-N-hydroxy-3-oxo-3,4-dihydro-2H-benzo[b][1,4]oxazine-6-carboxamide] | 25 to 100 nM | 25 to 100 nM
15 | CC(C)CCN1C(=O)COc2ccc(C(=O)NO)cc21 [Compound I-59, N-hydroxy-4-isopentyl-3-oxo-3,4-dihydro-2H-benzo[b][1,4]oxazine-6-carboxamide] | 25 to 100 nM | 25 to 100 nM
16 | COc1ccc(CN2C(=O)COc3ccc(C(=O)NO)cc32)c(Cl)c1 [Compound I-242, 4-(2-chloro-4-methoxybenzyl)-N-hydroxy-3-oxo-3,4-dihydro-2H-benzo[b][1,4]oxazine-6-carboxamide] | ≤ 25 nM | < 25 nM

Row | SMILES | IC50 [1] | IC50 [2]
17 | O=C(NO)c1ccc2c(c1)N(Cc1ccc(Cl)c(Cl)c1)C(=O)CO2 [Compound I-258, 4-(3,4-dichlorobenzyl)-N-hydroxy-3-oxo-3,4-dihydro-2H-benzo[b][1,4]oxazine-6-carboxamide] | ≤ 25 nM | < 25 nM
18 | COc1ccc(CN2C(=O)COc3ccc(C(=O)NO)cc32)c(F)c1F [Compound I-247, 4-(2,3-difluoro-4-methoxybenzyl)-N-hydroxy-3-oxo-3,4-dihydro-2H-benzo[b][1,4]oxazine-6-carboxamide] | ≤ 25 nM | < 25 nM
19 | O=C(NO)c1ccc2c(c1)N(CC1CCCCC1)C(=O)CO2 [Compound I-149, 4-(cyclohexylmethyl)-N-hydroxy-3-oxo-3,4-dihydro-2H-benzo[b][1,4]oxazine-6-carboxamide] | 25 to 100 nM | 25 to 100 nM
20 | Cc1cccc(CN2C(=O)COc3ccc(C(=O)NO)cc32)c1F [Compound I-74, 4-(2-fluoro-3-methylbenzyl)-N-hydroxy-3-oxo-3,4-dihydro-2H-benzo[b][1,4]oxazine-6-carboxamide] | ≤ 25 nM | < 25 nM
21 | COc1cc(F)c(CN2C(=O)COc3ccc(C(=O)NO)cc32)c(F)c1 [Compound I-248, 4-(2,6-difluoro-4-methoxybenzyl)-N-hydroxy-3-oxo-3,4-dihydro-2H-benzo[b][1,4]oxazine-6-carboxamide] | ≤ 25 nM | < 25 nM
22 | Cn1c(CN2C(=O)COc3ccc(C(=O)NO)cc32)nc2ccc(Cl)cc21 [Compound I-278, 4-((6-chloro-1-methyl-1H-benzo[d]imidazol-2-yl)methyl)-N-hydroxy-3-oxo-3,4-dihydro-2H-benzo[b][1,4]oxazine-6-carboxamide] | 25 to 100 nM | 25 to 100 nM
23 | O=C(NO)c1ccc2c(c1)N(CCOCC(F)(F)F)C(=O)CO2 [Compound I-53, N-hydroxy-3-oxo-4-(2-(2,2,2-trifluoroethoxy)ethyl)-3,4-dihydro-2H-benzo[b][1,4]oxazine-6-carboxamide] | 25 to 100 nM | 25 to 100 nM
24 | O=C(NO)c1ccc2c(c1)N(Cc1ccc(F)cc1C(F)(F)F)C(=O)CO2 [Compound I-277, 4-(4-fluoro-2-(trifluoromethyl)benzyl)-N-hydroxy-3-oxo-3,4-dihydro-2H-benzo[b][1,4]oxazine-6-carboxamide] | 25 to 100 nM | 100 to 1000 nM
25 | COc1ccc2oc(CN3C(=O)COc4ccc(C(=O)NO)cc43)nc2c1 [Compound I-285, N-hydroxy-4-((5-methoxybenzo[d]oxazol-2-yl)methyl)-3-oxo-3,4-dihydro-2H-benzo[b][1,4]oxazine-6-carboxamide] | ≤ 25 nM | < 25 nM
26 | O=C(NO)c1ccc2c(c1)N(Cc1csc(-c3ccccc3)n1)C(=O)CO2 [Compound I-271, N-hydroxy-3-oxo-4-((2-phenylthiazol-4-yl)methyl)-3,4-dihydro-2H-benzo[b][1,4]oxazine-6-carboxamide] | 25 to 100 nM | 25 to 100 nM
27 | O=C(NO)c1ccc2c(c1)N(Cc1ccccc1Cl)C(=O)CO2 [Compound I-147, 4-(2-chlorobenzyl)-N-hydroxy-3-oxo-3,4-dihydro-2H-benzo[b][1,4]oxazine-6-carboxamide] | 25 to 100 nM | < 25 nM
28 | O=C(NO)c1ccc2c(c1)N(Cc1ccc(F)cc1Cl)C(=O)CO2 [Compound I-270, 4-(2-chloro-4-fluorobenzyl)-N-hydroxy-3-oxo-3,4-dihydro-2H-benzo[b][1,4]oxazine-6-carboxamide] | ≤ 25 nM | < 25 nM
29 | COc1cccc(CN2C(=O)COc3ccc(C(=O)NO)cc32)c1 [Compound I-60, N-hydroxy-4-(3-methoxybenzyl)-3-oxo-3,4-dihydro-2H-benzo[b][1,4]oxazine-6-carboxamide] | 25 to 100 nM | 25 to 100 nM
30 | O=C(NO)c1ccc2c(c1)N(Cc1cccc(C(F)(F)F)c1F)C(=O)CO2 [Compound I-265, 4-(2-fluoro-3-(trifluoromethyl)benzyl)-N-hydroxy-3-oxo-3,4-dihydro-2H-benzo[b][1,4]oxazine-6-carboxamide] | 25 to 100 nM | 25 to 100 nM
31 | Cc1cccc(CN2C(=O)COc3ccc(C(=O)NO)cc32)c1 [Compound I-68, N-hydroxy-4-(3-methylbenzyl)-3-oxo-3,4-dihydro-2H-benzo[b][1,4]oxazine-6-carboxamide] | ≤ 25 nM | 25 to 100 nM
